In test [1] the test system is ACE. The following applies: cited from earlier work. From the text: The inhibitory patterns of the ACEI peptides mainly contain competitive inhibition, non-competitive inhibition, and mixed inhibition according to their various structures. […] Non-competitive A ... || The Lineweaver-Burk plots were employed to elucidate the ACE inhibition kinetic of the synthetic peptide […], shown in Figure 2B. Whereas the Vmax was the same when the concentrations of the inhibitory peptide increased, the Km/Vmax value increased. […] Among all the ACE inhibition patter ...

For test [2], the target named is T1, Angiotensin-I converting enzyme (ACE) (from rabbit lungs) (Oryctolagus cuniculus, UniProt P12822).
T1 construct: Angiotensin-I converting enzyme (ACE) (from rabbit lungs); purchased Sigma-Aldrich Co. (St. Louis, MO, United States); host or cells: rabbit lung tissue
T1 sequence (P12822 34-1310): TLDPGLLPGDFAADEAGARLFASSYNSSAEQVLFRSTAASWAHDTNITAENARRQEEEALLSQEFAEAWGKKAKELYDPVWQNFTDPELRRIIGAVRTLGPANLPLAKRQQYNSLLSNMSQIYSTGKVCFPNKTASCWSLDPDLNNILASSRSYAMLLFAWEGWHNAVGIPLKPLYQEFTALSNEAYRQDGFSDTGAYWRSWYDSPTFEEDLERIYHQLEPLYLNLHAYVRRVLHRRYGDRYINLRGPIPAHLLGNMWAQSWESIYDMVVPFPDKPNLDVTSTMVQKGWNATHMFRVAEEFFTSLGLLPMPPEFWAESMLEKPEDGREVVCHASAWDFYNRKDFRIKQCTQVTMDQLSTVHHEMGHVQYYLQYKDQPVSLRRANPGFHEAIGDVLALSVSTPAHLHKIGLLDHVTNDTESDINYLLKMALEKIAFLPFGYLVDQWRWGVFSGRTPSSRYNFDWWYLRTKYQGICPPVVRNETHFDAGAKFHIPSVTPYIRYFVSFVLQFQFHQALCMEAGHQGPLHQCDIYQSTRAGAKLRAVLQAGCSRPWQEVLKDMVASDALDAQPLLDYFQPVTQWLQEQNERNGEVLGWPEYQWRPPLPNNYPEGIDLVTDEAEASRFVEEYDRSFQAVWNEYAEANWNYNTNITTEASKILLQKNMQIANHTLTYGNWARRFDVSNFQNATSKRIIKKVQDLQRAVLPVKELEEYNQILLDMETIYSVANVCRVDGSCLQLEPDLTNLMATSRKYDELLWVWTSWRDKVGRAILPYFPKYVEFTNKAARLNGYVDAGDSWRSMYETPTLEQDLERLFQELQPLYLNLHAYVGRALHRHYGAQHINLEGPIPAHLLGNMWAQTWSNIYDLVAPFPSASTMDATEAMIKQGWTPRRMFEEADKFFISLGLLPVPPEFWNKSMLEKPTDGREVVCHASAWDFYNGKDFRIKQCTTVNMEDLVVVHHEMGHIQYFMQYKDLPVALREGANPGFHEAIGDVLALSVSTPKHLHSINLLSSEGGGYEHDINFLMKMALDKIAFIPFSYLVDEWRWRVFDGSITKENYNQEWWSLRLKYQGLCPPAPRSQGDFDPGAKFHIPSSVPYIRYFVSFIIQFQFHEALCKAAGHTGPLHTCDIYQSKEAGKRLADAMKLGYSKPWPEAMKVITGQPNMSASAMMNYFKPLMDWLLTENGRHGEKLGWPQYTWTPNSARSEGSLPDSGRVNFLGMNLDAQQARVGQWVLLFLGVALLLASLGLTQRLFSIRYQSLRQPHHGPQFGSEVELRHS
Put plainly: ACE-inhibitory activity assay (HHL substrate, HPLC of hippuric acid). Type of test: biochemical. On the procedure:
The ACEI activity of the synthesized peptides was measured following the reported method with a minor modification ([22]). The experiment was carried out in a 1.5 mL PE tube. Briefly, for each assay, 20 μL of the inhibitor (1 mg/ml) was mixed with 120 μL of the HHL solution in the concentration of 5 mM. The mixture was first preincubated at a constant temperature of 37°C for 5 min, 10 μL ACE (0.1 U/mL) was then added to start the reaction, and to incubate at 37°C for 60 min. In the end, 150 μl HCl (1M) was used to terminate the reaction. Meanwhile, the inhibitor solution was replaced with 20 μL boric acid buffer solution (0.1 mol/L, pH 7.3, containing 0.3 mol/L NaCl) as a blank control group. The HPLC system was equipped with a ZORBAX Eclipse SB-C18 column (5 μm particle size, 4.6 × 150 mm). To analyze the releasing amount of hippuric acid under the action of ACE, the elution was conducted in 25% Mobile Phase A (ACN) and 75% Mobile Phase B (0.05% TFA in ultrapure water) for 25 min with a flow rate of 0.8 mL/min. The ACE inhibitory activity percentage (%) was calculated based on the equation below:
ACEinhibitionrate(%)=(B-S)/B×100
Where B and S are the chromatographic peak areas of the control group and the sample tested, respectively. IC50 is the inhibitor concentration capable of inhibiting 50% of ACE activity under the described experimental conditions, which was estimated by non-linear regression of ACE inhibition (%) against different inhibitor concentrations by using SPSS software.

The target in test [3] is T1, Angiotensin-I converting enzyme (ACE) (from rabbit lungs). The test is described as above. In kind it is biochemical. The following applies: peptide 2 mg/mL, HHL 5 mM, ACE 0.1 U/mL, 37°C, 5 min pre-incubation, 60 min, triplicate.
For test [4] the target is unchanged. Put plainly: Kinetics of ACE inhibition (Lineweaver-Burk plot). The following applies: HHL 1–10 mM, peptide 1 and 2 mg/mL. In kind it is biochemical. On the procedure: To explore the inhibition pattern of the peptide and clarify the kinetics of ACEI activity, the Lineweaver-Burk plot was employed in our study. The various concentrations of the HHL solution were 1, 2, 5, 8, and 10 mM, and the concentration of synthesized peptide was set as 2 mg/mL. Various concentrations of HHL and peptide were incubated in ACE solutions. The Y-intercept of the Lineweaver-Burk plot represents the reciprocal of the maximum velocity (Vmax^–1), while the X-intercept is the reciprocal of the Michaelis-Menten constant (Km^–1).

In test [5] the test system is SHRs (spontaneously hypertensive rats). Put plainly: Blood pressure of SHRs after single intragastric administration (tail-cuff). Type of test: in vivo, rat. On the procedure:
Male SHRs aged 10–12 weeks old, body weight (BW) of 220–250 g, and blood pressure over 180 mmHg were purchased from Trophic Animal Feed High-tech Co. Ltd., (Nantong, China). Six SHRs were administrated individually in each cage with the stable room temperature (25 ± 0.5°C), the humidity of 55 ± 5%, and a 12-h light to12-h dark cycle. Food and water were freely accessed. Rats were accustomed to the above environment for 2 weeks before the experiment. […] The SHRs were randomly grouped in 3. Rats were gavage administered with peptide at 15 mg/kg⋅BW/day in the experiment group. […] All rats were gavaged with their daily dose at 8 am, and the blood pressure was measured every 3 h by 4 times, which was using the tail-cuff method ([27]). Briefly, rats were covered with a fixed device but could let their tail leak out (MK2000ST, Muromachi Kikai Co., Ltd., Japan). A cuff was curled around the tail to measure the diastolic blood pressure (DBP) and systolic blood pressure (SBP).

The subject of test [6] is Ren1 / Adrb3 expression in SHRs. Also on record: method as in 2 sources, one per row (each row's own in cited_ref): ref [45] = [45]; PMID 24404915; doi:10.1021/jf405189y; 45. Yu ZP Yin YG Zhao WZ Chen F Liu JB . Antihypertensive effect of angiotensin-converting enzyme inhibitory peptide RVPSL on spontaneously hypertensive rats by regulating gene expression of the renin ||| ref [46] = [46]; PMID 26517713; doi:10.1371/journal.pone.0142016; 46. Feng J Dai Z Zhang Y Meng L Ye J Ma X . Alteration of gene expression profile in kidney of spontaneously hypertensive rats treated with protein hydrolysate of blue mussel ( Mytilus edulis ) by DNA. The note with it: SHRs orally administered 50 mg/kg; ref [45]; cited from earlier work.

Setting [7] is: food-derived peptides, ref [41], [42].
The mark [8] stands for this setting: food-derived peptides, ref [32], [37].
The mark [9] stands for this setting: peptide 1 mg/mL, HHL 5 mM, ACE 0.1 U/mL, 37°C, 5 min pre-incubation, 60 min, HPLC of hippuric acid, triplicate.
The mark [10] stands for this setting: clinical drugs for hypertension, ref [30].
The mark [11] stands for this setting: food-derived peptides, ref [43], [44].

Read-outs that look alike come from different tables or passages of the source. Residues, ends and D or L forms follow the SMILES beside them.

Regarding “SSYYPFK [from naked oat globulin hydrolysates]”, the ACE inhibitory pattern entry in test [1] (setting [7]) is “competitive”.

Take ISSMGILVCL [isolated from longan seeds]: the ACE inhibitory pattern result in test [1] (setting [8]) is reported as “Non-competitive”. In the case of QAGLSPVR [from tilapia skin gelatin], the ACE inhibitory pattern entry in test [1] (setting [8]) is “Non-competitive”.

For the compound AVKVL [derived from hazelnut], in test [1] (setting [8]), the ACE inhibitory pattern result was “Non-competitive”. With ETSGMKPTEL [isolated from longan seeds], the ACE inhibitory pattern entry in test [1] (setting [8]) was “Non-competitive”. As to YLVR [derived from hazelnut], the ACE inhibitory pattern result in test [1] (setting [8]) is recorded as “Non-competitive”. Turning to VILGDADLP, the “ACE inhibition rate (%) Concentration (1 mg/mL)” value in test [2] (setting [9]) was 1.6051%. The “ACE inhibition rate (%) Concentration (2 mg/mL)” value in test [3] is 4.7219%.

For the compound `NCCCC[C@H](N[C@@H](CCc1ccccc1)C(=O)O)C(=O)N1CCC[C@H]1C(=O)O` [lisinopril], the ACE inhibitory pattern entry in test [1] (setting [10]) is reported as “competitive inhibitors”. Consider `CCOC(=O)[C@H](CCc1ccccc1)N[C@@H](C)C(=O)N1CCC[C@H]1C(=O)O` [enalapril], for which the ACE inhibitory pattern result in test [1] (setting [10]) is listed as “competitive inhibitors”. Consider LDVSWASD, for which, in test [2] (setting [9]), the “ACE inhibition rate (%) Concentration (1 mg/mL)” value came out at 3.6918%. For the same compound, in test [3], the “ACE inhibition rate (%) Concentration (2 mg/mL)” value was found to be 13.9971%. With `CC(C)C[C@H](NC(=O)[C@H](Cc1ccc(O)cc1)NC(=O)[C@H](CCC(=O)O)NC(=O)[C@H](C)N)C(=O)N[C@@H](CS)C(=O)N[C@@H](CCC(=O)O)C(=O)N[C@@H](C)C(=O)N[C@@H](CS)C(=O)O` (H-AEYLCEAC-OH), the “ACE inhibition rate (%) Concentration (1 mg/mL)” value in test [2] (setting [9]) is on record as 14.2857%. The inhibition at 1000 µg/mL in test [2] (peptide 1 mg/mL, HHL 5 mM, ACE 0.1 U/mL, 37°C, 5 min pre-incubation, 60 min, HPLC of hippuric acid, triplicate, read-out: ACE inhibition rate (%) Concentration (1 mg/mL)) turned out to be 14.3%. The IC50 in test [2] (peptide 0.2–15 mg/mL, HPLC method, regression y = −0.0073x^2 + 0.1616x −0.0105 (R^2 = 0.99), read-out: IC50 of ACE inhibition) was found to be 4.29 mM. The “ACE inhibition rate (%) Concentration (2 mg/mL)” value in test [3] is given as 29.3266%. The inhibition at 2000 µg/mL in test [3] (read-out: ACE inhibition rate (%) Concentration (2 mg/mL)) came out at 29.3%. For the same compound, in test [4], the “Km/Vmax value with increasing inhibitory peptide concentration” value is “increased”.

RSNDGPI: the “ACE inhibition rate (%) Concentration (1 mg/mL)” value in test [2] (setting [9]) is “–13.9647%”. The “ACE inhibition rate (%) Concentration (2 mg/mL)” value in test [3] is recorded as “–4.3447%”. Regarding TLVGR [derived from hazelnut], in test [1] (setting [8]), the ACE inhibitory pattern result is recorded as “Non-competitive”.

For “QLVP [from Mycelia of Ganoderma Lucidum]”, the ACE inhibitory pattern result in test [1] (setting [11]) is listed as “mixed pattern”. On to “ALVY [from Gac Seed Protein Hydrolysates]”, for which the ACE inhibitory pattern result in test [1] (setting [7]) is recorded as “competitive”.

As to QEVVMGEC, the “ACE inhibition rate (%) Concentration (1 mg/mL)” value in test [2] (setting [9]) is listed as “–3.8523%”. Besides, the “ACE inhibition rate (%) Concentration (2 mg/mL)” value in test [3] was “–5.0688%”. As for VGLPNSR [from tilapia skin gelatin], the ACE inhibitory pattern entry in test [1] (setting [8]) is given as “Non-competitive”. Turning to `C[C@H](CS)C(=O)N1CCC[C@H]1C(=O)O` [captopril], the “blood pressure reduction in rats with hypertension, overall comparison” value in test [5] (all data of single and 4-week administration in SHRs) is reported as “better than AEYLCEAC”. In test [5] (male SHRs, gavage, peptide 15 mg/kg BW, captopril 10 mg/kg BW, 3 to 12 h, vs water control, p < 0.01), the “SBP after a single intragastric administration” value is “SBP in control group was significantly higher than that in the peptide group and positive group”. With “RVPSL [hydrolyzed from egg white protein]”, the Ren1 expression result in test [6] was “downregulated”.

For LSSNLHG, the “ACE inhibition rate (%) Concentration (1 mg/mL)” value in test [2] (setting [9]) was “–1.1236%”. Moreover, the “ACE inhibition rate (%) Concentration (2 mg/mL)” value in test [3] is reported as “–5.7205%”. On to “NMAINPSKENLCSTFCK [isolated from casein hydrolysates]”, for which the ACE inhibitory pattern entry in test [1] (setting [11]) is listed as “mixed pattern”. As to TNEVEGPS, in test [2] (setting [9]), the “ACE inhibition rate (%) Concentration (1 mg/mL)” value was “–4.8796%”. The “ACE inhibition rate (%) Concentration (2 mg/mL)” value in test [3] is 7.9218%. Consider EPNGLLLPQY [from walnut protein], for which the ACE inhibitory pattern entry in test [1] (setting [11]) is on record as “mixed pattern”.

Broadly, the IC50 is the concentration that gives 50% inhibition.

Values taken from publication PMC9445672, “A novel angiotensin-I-converting enzyme inhibitory peptide from oyster: Simulated gastro-intestinal digestion, molecular docking, inhibition kinetics and antihypertensive effects in rats” (Frontiers in Nutrition, 2022).
